The text below walks through data of ChEMBL document CHEMBL1201862, “PubChem BioAssay data set” (2004).

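In this assay, cells in 96-well plates receive the compound at five concentrations for 48 hours. Endpoints are linearly interpolated between the surrounding concentrations. GI50: concentration for 50% inhibition of growth.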 Calls of active or inactive are those of the source. No stated cut-off is given here; in the data, active = GI50 up to about 1.1 µM and inactive = higher. Where only a bound is given, the exact number is not on record here.

Common to all, as to test: DTP human tumour cell line panel, 48 h
Test [1] has as its system KM12.
Test [2] concerns IGROV-1.
In test [3] the test system is 786-0.
Test [4] relates to SK-MEL-2.
Test [5] deals with NCI-H23.
The subject of test [6] is HT-29.
For test [7], the system named is HCT-116.
Test [8] relates to UACC-257.
Test [9] concerns Hs-578T.
Test [10] concerns RPMI-8226.
Test [11] relates to SF-295.
The subject of test [12] is MDA-N.
The test system of test [13] is SW-620.
For test [14], the system named is OVCAR-4.
The test system of test [15] is OVCAR-5.
Test [16] concerns ACHN.
The subject of test [17] is NCI-H226.
Test [18] concerns RXF 393.
For test [19], the system named is Malme-3M.

With `CC1(C)CC(=O)C2=C(C1)c1c(ccc3ccccc13)NC2c1cn(Cc2ccc(Cl)cc2)c2ccccc12` (centres undefined), the GI50 (commonly the concentration at which growth is held to half of that of the control) in [1] is > 100 µM (inactive); in [2], 59.2 µM (inactive); in test [3], > 100 µM (inactive); in test [4] it was > 100 µM (inactive); in test [5], 80.7 µM (inactive); in test [6] it was > 100 µM (inactive). Also, the GI50 in test [7] is 9.35 µM (inactive); in [8], 94.2 µM (inactive); in test [9] it was 74.1 µM (inactive); in [10], > 100 µM (inactive); in test [11], 31.2 µM (inactive); in [12] it was > 100 µM (inactive). The GI50 in [13] was > 100 µM (inactive); in test [14], > 100 µM (inactive); in [15] it was 36.5 µM (inactive); in [16], 61.9 µM (inactive).
Consider `C/C(=C\CNc1ncnc2[nH]c(Cl)nc12)CO`, for which the GI50 in [1], in test [17], in test [2], in [3], in [5] and in [6] was > 100 µM (inactive) in each case. Also, the GI50 in test [18], in test [7], in test [8], in test [9], in test [10] and in [11] was > 100 µM (inactive) in each case. For the same compound, the GI50 in test [12], in [13], in [19], in [14], in test [15] and in test [16] was > 100 µM (inactive) each time.
Take `C#CCOC(=O)[C@@H](C)c1ccc2cc(OC)ccc2c1`: the GI50 in test [1] was > 100 µM (inactive); in test [17], > 100 µM (inactive); in [2] it was > 100 µM (inactive); in [3], 71.9 µM (inactive); in test [4] it was > 100 µM (inactive); in [5] it was 63.5 µM (inactive). Further, the GI50 in test [18] was 86.5 µM (inactive); in test [7], > 100 µM (inactive); in test [8], 96.2 µM (inactive); in test [9], > 100 µM (inactive); in [10], 29.5 µM (inactive); in test [11], > 100 µM (inactive). Moreover, the GI50 in test [12] is > 100 µM (inactive); in [13], > 100 µM (inactive); in test [14] it was 96.8 µM (inactive); in test [15], > 100 µM (inactive); in test [16], > 100 µM (inactive).
As to `CC1(C)C(C(=O)OC(C#N)c2cccc(OCC(=O)OCc3ccccc3)c2)C1(C)C` (centres undefined), the GI50 in [1] was > 100 µM (inactive); in test [17] it was > 100 µM (inactive); in [2], > 100 µM (inactive); in [3], > 100 µM (inactive); in test [4], 20.4 µM (inactive); in test [5], 37.4 µM (inactive). The GI50 in test [6] was > 100 µM (inactive); in test [18] it was > 100 µM (inactive); in [7], 40.4 µM (inactive); in test [8], 55.6 µM (inactive); in test [9], > 100 µM (inactive); in [11] it was > 100 µM (inactive). Moreover, the GI50 in test [12] was > 100 µM (inactive); in test [13], 70.3 µM (inactive); in test [19], > 100 µM (inactive); in [14], > 100 µM (inactive); in [15], > 100 µM (inactive); in test [16], > 100 µM (inactive).
Take `O=C1CSC(c2c[nH]c3ccccc23)N1c1ccc(Cl)cc1` (centres undefined): the GI50 in test [1], in [17], in test [2], in test [3], in test [4] and in [5] was > 100 µM (inactive) throughout. Moreover, the GI50 in test [6], in [18], in [7], in [8], in [9] and in test [10] was > 100 µM (inactive) in each case. Besides, the GI50 in [11], in test [12], in test [13], in [14], in test [15] and in test [16] was > 100 µM (inactive) throughout.
Take `c1csc(-c2cc(-c3ccsc3)c(-c3ccsc3)s2)c1`: the GI50 in [1] is > 100 µM (inactive); in [17] it was > 10 µM (inactive); in test [2] it was > 100 µM (inactive); in [3], > 100 µM (inactive); in [5] it was > 100 µM (inactive); in test [6] it was > 100 µM (inactive). The GI50 in test [18], in test [7], in test [8], in [9], in test [11] and in test [12] was > 100 µM (inactive) in each case. In addition, the GI50 in test [13], in test [19], in test [14], in [15] and in test [16] was > 100 µM (inactive) each time.
On to `O=C(O)c1ccc(C(c2c(O)oc3ccccc3c2=O)c2c(O)oc3ccccc3c2=O)cc1`, for which the GI50 in test [1] was > 100 µM (inactive); in test [3] it was > 100 µM (inactive); in test [4] it was > 100 µM (inactive); in test [5] it was 59.7 µM (inactive); in test [6], > 100 µM (inactive); in [18] it was > 100 µM (inactive). Besides, the GI50 is > 100 µM (inactive) in [7]; > 100 µM (inactive) in [8]; 5 µM (inactive) in [9]; 1.02 µM (active) in [10]; > 100 µM (inactive) in test [11]; > 100 µM (inactive) in test [12]. The GI50 in test [13] is > 100 µM (inactive); in test [15] it was 86.3 µM (inactive); in test [16], > 100 µM (inactive).
For `CC(=O)c1cc2ccccc2[n+]([O-])c1N`, the GI50 in test [1], in [17], in [2], in test [3], in [4] and in test [5] was > 100 µM (inactive) each time. Also, the GI50 in [6], in [18], in test [7], in test [8], in test [9] and in test [11] was > 100 µM (inactive) throughout. In addition, the GI50 in [12], in test [19], in test [14], in test [15] and in test [16] was > 100 µM (inactive) each time.
As for `Brc1ccc(C2(N3CCCCC3)CCCCC2)s1`, the GI50 in test [1] was 28.4 µM (inactive); in test [2] it was 22.2 µM (inactive); in [3], > 100 µM (inactive); in [4], 19 µM (inactive); in [5], 37.3 µM (inactive); in test [6] it was 23.5 µM (inactive). For the same compound, the GI50 in [18] is 14.3 µM (inactive); in test [7], > 100 µM (inactive); in test [8], 29.8 µM (inactive); in test [9], 36.1 µM (inactive); in test [10] it was 19.6 µM (inactive); in test [11] it was 35.6 µM (inactive). The GI50 in test [12] was 79.8 µM (inactive); in test [13] it was 31.8 µM (inactive); in test [19] it was 29.3 µM (inactive); in test [14], 40.7 µM (inactive); in [15], 67 µM (inactive); in test [16], 51.1 µM (inactive).
With `CSc1nc(N)c(NC2OC(CO)C(O)C2O)c(=O)[nH]1` (centres undefined), the GI50 in [1], in test [17], in [2], in [3], in test [4] and in test [6] was > 100 µM (inactive) each time. The GI50 in test [18], in test [7], in test [8], in test [9], in test [10] and in test [11] was > 100 µM (inactive) in each case. Moreover, the GI50 in test [12], in [13], in test [19], in [14] and in [15] was > 100 µM (inactive) throughout.
On to `Cn1c(-c2ccc[se]2)ccc1-c1ccc(C=O)[se]1`, for which the GI50 is > 100 µM (inactive) in [1]; 0.865 µM (active) in test [17]; 0.122 µM (active) in test [2]; 20.9 µM (inactive) in test [3]; 65.3 µM (inactive) in [4]; 12.4 µM (inactive) in test [5]. Moreover, the GI50 was 10.8 µM (inactive) in test [6]; 0.59 µM (active) in test [7]; 0.796 µM (active) in test [8]; 25.2 µM (inactive) in test [9]; 1.03 µM (active) in test [10]; 12.4 µM (inactive) in [11]. Further, the GI50 in [12] is 6.34 µM (inactive); in test [13], 1.3 µM (inactive); in [14], 0.247 µM (active); in test [15] it was 0.0418 µM (active); in [16] it was 46.6 µM (inactive).
Take `CCOC(=O)c1c(NC(=S)Nc2ccc(C)cc2)sc2c1CCN(C)C2`: the GI50 in [1] is 81.7 µM (inactive); in [17], > 100 µM (inactive); in test [2], > 100 µM (inactive); in test [3], > 100 µM (inactive); in test [4], > 100 µM (inactive); in test [5], > 100 µM (inactive). For the same compound, the GI50 in test [6], in [18], in [7], in [8], in [9] and in test [10] was > 100 µM (inactive) each time. Also, the GI50 in test [11], in [12], in test [15] and in test [16] was > 100 µM (inactive) each time.
